Source: PubChem BioAssay (NCI)
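The compound was tested at five concentrations on cells cultured in 96-well plates, with a 48-hour exposure period. TGI marks complete inhibition of growth.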

Legend:
Assay in all cases: inhibition of tumour cell growth, NCI panel, 48 h
IGROV1 ovarian = test system: IGROV1 ovarian
MDA-MB-231 breast = test system: MDA-MB-231 breast
SF-539 CNS = test system: SF-539 CNS
SN12C renal = test system: SN12C renal
HT29 colon = test system: HT29 colon
OVCAR-3 ovarian = test system: OVCAR-3 ovarian
M14 melanoma = test system: M14 melanoma
MOLT-4 leukemia = test system: MOLT-4 leukemia
KM12 colon = test system: KM12 colon
HS 578T breast = test system: HS 578T breast
OVCAR-8 ovarian = test system: OVCAR-8 ovarian
RPMI-8226 leukemia = test system: RPMI-8226 leukemia
SK-MEL-28 melanoma = test system: SK-MEL-28 melanoma
U251 CNS = test system: U251 CNS
HCC-2998 colon = test system: HCC-2998 colon
NCI-H460 lung = test system: NCI-H460 lung
SNB-19 CNS = test system: SNB-19 CNS
OVCAR-5 ovarian = test system: OVCAR-5 ovarian
K-562 leukemia = test system: K-562 leukemia
NCI-H23 lung = test system: NCI-H23 lung
NCI-H522 lung = test system: NCI-H522 lung
HCT-116 colon = test system: HCT-116 colon
SF-295 CNS = test system: SF-295 CNS
DU-145 prostate = test system: DU-145 prostate
CAKI-1 renal = test system: CAKI-1 renal
BT-549 breast = test system: BT-549 breast
COLO 205 colon = test system: COLO 205 colon
TK-10 renal = test system: TK-10 renal
SK-OV-3 ovarian = test system: SK-OV-3 ovarian
UACC-62 melanoma = test system: UACC-62 melanoma
EKVX NSCLC = test system: EKVX NSCLC
HCT-15 colon = test system: HCT-15 colon
PC-3 prostate = test system: PC-3 prostate
MDA-N = test system: MDA-N
HOP-62 NSCLC = test system: HOP-62 NSCLC
SK-MEL-2 melanoma = test system: SK-MEL-2 melanoma
UO-31 renal = test system: UO-31 renal
MALME-3M melanoma = test system: MALME-3M melanoma
A549 NSCLC = test system: A549 NSCLC
HOP-92 NSCLC = test system: HOP-92 NSCLC
UACC-257 melanoma = test system: UACC-257 melanoma
LOX IMVI melanoma = test system: LOX IMVI melanoma
OVCAR-4 ovarian = test system: OVCAR-4 ovarian
SK-MEL-5 melanoma = test system: SK-MEL-5 melanoma
SF-268 CNS = test system: SF-268 CNS
786-0 renal = test system: 786-0 renal
NCI/ADR-RES ovarian = test system: NCI/ADR-RES ovarian
MDA-MB-435 = test system: MDA-MB-435
SNB-75 CNS = test system: SNB-75 CNS
SW-620 colon = test system: SW-620 colon
HL-60(TB) leukemia = test system: HL-60(TB) leukemia
NCI-H226 lung = test system: NCI-H226 lung
RXF 393 renal = test system: RXF 393 renal
ACHN renal = test system: ACHN renal
CCRF-CEM leukemia = test system: CCRF-CEM leukemia
T-47D breast = test system: T-47D breast
SR leukemia = test system: SR leukemia
A498 renal = test system: A498 renal

Measured: TGI

Nc1cc(OCC2CCCCC2)nc(N)n1
not listed: T-47D breast | SR leukemia | A498 renal
> 100 µM: all other assays above

O=S1(=O)OCCOS(=O)(=O)C1(F)Cc1ccccc1
not listed: KM12 colon | BT-549 breast | UACC-257 melanoma
> 100 µM: all other assays above
